According to EPA's CvTdb concentration-time database:

Key:
[1] = tested on: Rat; assay: concentration in heart after dosing; conditions: 40 min; dosed: Bis 2-Chloroethoxy Methane; 20 mg/kg; iv; Female; F344
[2] = tested on: Rat; assay: concentration in liver after dosing; conditions: 1 h; dosed: Bis 2-Chloroethoxy Methane; 20 mg/kg; iv; Male; F344
[3] = tested on: Rat; assay: concentration in liver after dosing; conditions: 2 h; dosed: Bis 2-Chloroethoxy Methane; 20 mg/kg; iv; Female; F344
[4] = tested on: Rat; assay: concentration in liver after dosing; conditions: 10 min; dosed: Bis 2-Chloroethoxy Methane; 20 mg/kg; iv; Male; F344
[5] = tested on: Rat; assay: concentration in heart after dosing; conditions: 2 h; dosed: Bis 2-Chloroethoxy Methane; 20 mg/kg; iv; Female; F344
[6] = tested on: Rat; assay: concentration in thymus after dosing; conditions: 2 h; dosed: Bis 2-Chloroethoxy Methane; 20 mg/kg; iv; Female; F344
[7] = tested on: Rat; assay: concentration in brain after dosing; conditions: 3 h; dosed: Fluorotelomer alcohol 8+2; 24 mg/kg; oral; Male; Harlan Sprague Dawley
[8] = tested on: Rat; assay: concentration in liver after dosing; conditions: 6 h; dosed: Fluorotelomer alcohol 8+2; 80 mg/kg; oral; Female; Harlan Sprague Dawley
[9] = tested on: Rat; assay: concentration in liver after dosing; conditions: 6 h; dosed: Fluorotelomer alcohol 8+2; 24 mg/kg; oral; Male; Harlan Sprague Dawley
[10] = tested on: Rat; assay: concentration in liver after dosing; conditions: 1 h; dosed: Fluorotelomer alcohol 8+2; 80 mg/kg; oral; Female; Harlan Sprague Dawley
[11] = tested on: Rat; assay: concentration in brain after dosing; conditions: 1 h; dosed: Fluorotelomer alcohol 8+2; 80 mg/kg; oral; Female; Harlan Sprague Dawley
[12] = tested on: Rat; assay: concentration in plasma after dosing; conditions: dosed: Fluorotelomer alcohol 8+2, 12 mg/kg, iv, Male, F344
[13] = tested on: Rat; assay: concentration in plasma after dosing; conditions: dosed: Fluorotelomer alcohol 8+2, 12 mg/kg, oral, Male, Harlan Sprague Dawley
[14] = tested on: Rat; assay: concentration in plasma after dosing; conditions: dosed: Fluorotelomer alcohol 8+2, 12 mg/kg, iv, Male, F344; remark: listed apart in the source
[15] = tested on: Rat; assay: concentration in kidney after dosing; conditions: 6 h; dosed: Fluorotelomer alcohol 8+2; 80 mg/kg; oral; Female; Harlan Sprague Dawley
[16] = tested on: Rat; assay: concentration in plasma after dosing; conditions: 0.5 h; dosed: Di-n-butyl phthalate; 50 mg/kg; oral; Male; Sprague-Dawley
[17] = tested on: Rat; assay: concentration in plasma after dosing; conditions: 3 h; dosed: Di-n-butyl phthalate; 50 mg/kg; oral; Male; Sprague-Dawley
[18] = tested on: Rat; assay: concentration in plasma after dosing; conditions: 6 h; dosed: Di-n-butyl phthalate; 50 mg/kg; oral; Male; Sprague-Dawley
[19] = tested on: Rat; assay: concentration in plasma after dosing; conditions: 20 h; dosed: Di-n-butyl phthalate; 200 mg/kg; oral; Male; Sprague-Dawley
[20] = tested on: Rat; assay: concentration in plasma after dosing; conditions: 4 h; dosed: Di-n-butyl phthalate; 20 mg/kg; iv; Male; Sprague-Dawley
[21] = tested on: Rat; assay: concentration in liver after dosing; conditions: 1 h; dosed: Perfluorodecanoic acid; 10 mg/kg; oral; Male; Harlan Sprague Dawley
[22] = tested on: Rat; assay: concentration in liver after dosing; conditions: 1848 h; dosed: Perfluorodecanoic acid; 10 mg/kg; oral; Male; Harlan Sprague Dawley
[23] = tested on: Rat; assay: concentration in plasma after dosing; conditions: dosed: Perfluorodecanoic acid, 2 mg/kg, oral, Male, Harlan Sprague Dawley
[24] = tested on: Rat; assay: concentration in plasma after dosing; conditions: dosed: Perfluorodecanoic acid, 2 mg/kg, iv, Male, F344
[25] = tested on: Rat; assay: concentration in plasma after dosing; conditions: dosed: Perfluorodecanoic acid, 2 mg/kg, oral, Male, Harlan Sprague Dawley; remark: listed apart in the source
[26] = tested on: Rat; assay: concentration in plasma after dosing; conditions: 22 h; dosed: Primidone; 80 mg/kg; oral; Female; F344
[27] = tested on: Rat; assay: concentration in plasma after dosing; conditions: 9 h; dosed: Primidone; 30 mg/kg; oral; Male; F344
[28] = tested on: Rat; assay: concentration in plasma after dosing; conditions: 12 h; dosed: Primidone; 130 mg/kg; oral; Female; F344
[29] = tested on: Rat; assay: concentration in liver after dosing; conditions: 6.667 h; dosed: Thiodiglycolic Acid; 20 mg/kg; iv; Female; Harlan Sprague Dawley
[30] = tested on: Rat; assay: concentration in liver after dosing; conditions: 40 min; dosed: Thiodiglycolic Acid; 20 mg/kg; iv; Male; Harlan Sprague Dawley
[31] = tested on: Rat; assay: concentration in heart after dosing; conditions: 2 h; dosed: Thiodiglycolic Acid; 20 mg/kg; iv; Female; Harlan Sprague Dawley
[32] = tested on: Rat; assay: concentration in liver after dosing; conditions: 4 h; dosed: Thiodiglycolic Acid; 20 mg/kg; iv; Female; Harlan Sprague Dawley
[33] = tested on: Rat; assay: concentration in plasma after dosing; conditions: 20 min; dosed: Thiodiglycolic Acid; 20 mg/kg; iv; Female; Harlan Sprague Dawley
[34] = tested on: Rat; assay: concentration in plasma after dosing; conditions: 3 h; dosed: Thiodiglycolic Acid; 20 mg/kg; iv; Female; Harlan Sprague Dawley
[35] = tested on: Rat; assay: concentration in plasma after dosing; conditions: 4 h; dosed: Thiodiglycolic Acid; 20 mg/kg; iv; Male; Harlan Sprague Dawley
[36] = tested on: Rat; assay: concentration in plasma after dosing; conditions: dosed: dichloroacetic acid, 100 mg/kg, oral, Male, F344
[37] = tested on: Rat; assay: concentration in plasma after dosing; conditions: dosed: dichloroacetic acid, 10 mg/kg, oral, Male, Harlan Sprague Dawley
[38] = tested on: Rat; assay: concentration in plasma after dosing; conditions: dosed: dichloroacetic acid, 100 mg/kg, oral, Male, F344; remark: listed apart in the source
[39] = tested on: Rat; assay: concentration in plasma after dosing; conditions: dosed: dichloroacetic acid, 100 mg/kg, oral, Male, F344; remark: listed apart in the source

ClCCOCOCCCl [Bis 2-Chloroethoxy Methane]
Conditions	concentration in heart [ng/g]	concentration in liver [ng/g]	concentration in thymus [ng/g]
[1]	3630	–	–
[2]	–	2410	–
[3]	–	70.7	–
[4]	–	5360	–
[5]	247	–	–
[6]	–	–	376

OCCC(F)(F)C(F)(F)C(F)(F)C(F)(F)C(F)(F)C(F)(F)C(F)(F)C(F)(F)F [Fluorotelomer alcohol 8+2]
Conditions	concentration in brain [ng/g]	concentration in kidney [ng/g]	concentration in liver [ng/g]
[7]	1780	–	–
[8]	–	–	2430
[9]	–	–	1220
[10]	–	–	5950
[11]	3370	–	–
[15]	–	834	–

concentration in plasma [ng/mL]
Conditions	0.5 h	0.75 h	9 h	12 h
[12]	–	756	–	13.3
[13]	374	–	12.8	–
[14]	1410	–	26.1	–

CCCCOC(=O)c1ccccc1C(=O)O [Mono-n-butyl phthalate]
Conditions	concentration in plasma [ng/mL]
[16]	21100
[17]	3050
[18]	1890
[19]	1870
[20]	678

O=C(O)C(F)(F)C(F)(F)C(F)(F)C(F)(F)C(F)(F)C(F)(F)C(F)(F)C(F)(F)C(F)(F)F [Perfluorodecanoic acid]
Conditions	concentration in liver [ng/g]
[21]	58100
[22]	32000

Conditions	concentration in plasma [ng/mL]
[23], 12 h	8900
[23], 1200 h	1160
[24], 6 h	6490
[24], 864 h	2790
[25], 1 h	4030
[25], 192 h	4670
[25], 2520 h	645

CCC1(c2ccccc2)C(=O)NC(=O)NC1=O [Phenobarbital]
Conditions	concentration in plasma [ng/mL]
[26]	1710
[27]	2930
[28]	8210

O=C(O)CSCC(=O)O [Thiodiglycolic Acid]
Conditions	concentration in heart [ng/g]	concentration in liver [ng/g]	concentration in plasma [ng/mL]
[29]	–	7630	–
[30]	–	176000	–
[31]	1420	–	–
[32]	–	7460	–
[33]	–	–	16300
[34]	–	–	676
[35]	–	–	339

O=C(O)C(Cl)Cl [dichloroacetic acid]
Conditions	concentration in plasma [ng/mL]
[36], 0.25 h	13300
[36], 6 h	32800
[37], 10 min	862
[37], 50 min	167
[38], 2 h	57500
[38], 5 min	20900
[39], 0.25 h	15500
[39], 6 h	29500
